Q: For CCC(C)Oc1ccccc1-c1ncc(C(N)=O)c(=O)[nH]1 (stereo not drawn), which melting point is on record?
A: 183 to 185 °C

Q: With CCOC(=O)/C=C/c1cn(-c2ccccc2)nc1OCc1ccc(OCc2nc(-c3ccccc3)oc2C)c(OC)c1 as the compound, how does the melting point read?
A: 194 to 195 °C

Q: Which melting point does the source give for CCC(=O)OC(C)(CC)c1nc2c(C(F)(F)F)cccc2c(O)c1C(=O)Nc1ccccn1 (stereo not drawn) here?
A: 192 °C

Q: For COc1ccccc1N1CCN(C(=O)CCCN2CC=C(c3c[nH]c4cc(Cl)ccc34)CC2)CC1, which melting point is on record?
A: 93 to 95 °C

Q: With CC(=O)Oc1c(C)c(C)c2c(c1C)CC(CCI)O2 (racemic) as the compound, how does the melting point read?
A: 89 to 90 °C

Q: With C[C@H]1c2ccccc2N(C(=O)CCl)[C@H]1C (relative stereo) as the compound, how does the melting point read?
A: 83 to 84 °C

Q: Which melting point does the source give for Cc1cccc(-c2nc(C(C)C)[nH]c2-c2ccc(F)c(-c3ccco3)c2)n1 here?
A: 78 to 90 °C

Q: With CCOC(=O)c1cc(C#N)c(C)nc1O as the compound, how does the melting point read?
A: 212 to 213 °C

Q: For CC(O)Cc1cc2c3ccccc3[nH]c(=O)n2n1 (stereo not drawn), which melting point is on record?
A: 228 to 229 °C

Q: With O=C(O)/C=C1\CCc2c(F)cc(F)cc21 as the compound, how does the melting point read?
A: 238 to 239 °C

Q: For CC(C)(C)c1cc(CCc2ccccc2NC(=O)N2CCN(Cc3ccccc3)CC2)cc(C(C)(C)C)c1O, which melting point is on record?
A: 70 to 72 °C

Q: For CC1(C)Oc2cc3nonc3cc2C(NC(=O)NCCCCl)C1O (stereo not drawn), which melting point is on record?
A: 83 to 85 °C

Q: Which melting point does the source give for CCN1CCC[C@H]1C(N)=O here?
A: 107 to 108 °C

Q: With C[Si](C)(C)C#Cc1cc2cccnc2c(-c2cccc([N+](=O)[O-])c2)n1 as the compound, how does the melting point read?
A: 160 to 163 °C

Q: Which melting point does the source give for CCCCc1ccc2scc(NC(=O)C(=O)OC)c(=O)c2c1 here?
A: 192 to 194 °C

Q: Which melting point does the source give for Clc1nc(Cl)nc(C2CC2)n1 here?
A: 106 to 107 °C

Q: Which melting point does the source give for C#CCOc1ccccc1-n1cnc2cc(N)ccc21 here?
A: 40 to 42 °C

Q: With CCOC(=O)c1cc2ccc3sc4ccccc4c3c2n1C as the compound, how does the melting point read?
A: 85 to 86 °C

Q: With NC1=NC(Cl)N(c2c([N+](=O)[O-])cc([N+](=O)[O-])cc2C(F)(F)F)C(Cl)=C1 (stereo not drawn) as the compound, how does the melting point read?
A: 198 to 200 °C

Q: Which melting point does the source give for C[N+]([O-])=C(Cn1ccnc1)c1cccs1 here?
A: 162 to 164 °C

Q: For Cn1ncnc1COc1nn2c(-c3ccccc3)nncc2c1-c1ccccc1, which melting point is on record?
A: 185 °C

Q: For COc1c(C(O)CNC(C)(C)Cc2ccccc2C)ccc(O)c1O (stereo not drawn), which melting point is on record?
A: 114 °C

Q: For CC(=O)Nc1ccc(S(=O)(=O)NCCN2[C@H](C)Cc3ccsc3[C@@H]2C)cc1 (relative stereo), which melting point is on record?
A: 142 to 144 °C

Q: Which melting point does the source give for Cc1c(N2C(=O)[C@H]3[C@@H](O)CCN3C2=O)ccc(C#N)c1Cl here?
A: 237 to 238 °C

Q: For O=C(NC(Cc1ccc(OCc2ccc(C(F)(F)F)cc2)cc1)C(=O)O)c1cc2cc(-c3ccc(Cl)cc3)ccc2s1 (stereo not drawn), which melting point is on record?
A: 198 °C

Q: Which melting point does the source give for CCCCc1nc2cccc(C(=O)O)c2n1Cc1ccc(-c2c(-c3nnn[nH]3)oc3ccccc23)cc1 here?
A: 194 to 195 °C

Q: Which melting point does the source give for CCC(C)NC(Nc1cc(Cl)cc(Cl)c1)=C(C#N)S(=O)(=O)c1ccc(Cl)cc1 (stereo not drawn) here?
A: 150 to 152 °C

Q: For Cc1nc(C)c(Cl)c(NCc2nccc(SCCCSc3sccc3[N+](=O)[O-])c2C)n1, which melting point is on record?
A: 174 to 180 °C

Q: Which melting point does the source give for Cc1c(C)c(N2Cc3cc4c(cc3C2)OCO4)c(C)c2c1OC(C)(C)C2c1ccccc1 (stereo not drawn) here?
A: 245 to 248 °C

Q: Which melting point does the source give for Cc1ccc2c(c1)N(CC(=O)c1ccccc1C)C(=O)C(NC(=O)Nc1cccc(C(=O)O)c1)CN2C(=O)c1ccco1 (stereo not drawn) here?
A: 219 to 221 °C

Q: With CC(C(=O)c1ccc(F)cc1F)c1ncccn1 (stereo not drawn) as the compound, how does the melting point read?
A: 118 to 119 °C

Q: For CCCCNC1NC(=O)N(c2ccc(O)cc2)C(=O)N1, which melting point is on record?
A: 263 to 265 °C

Q: With O=c1c2c(CCC(F)(F)F)n[nH]c2c2cccnc2n1-c1ccccc1 as the compound, how does the melting point read?
A: 272 to 274 °C

Q: Which melting point does the source give for O=C(Nc1ccc(-n2nc(C3CC3)cc2C2CC2)cc1)Nc1ccc2ncccc2c1 here?
A: 102 to 104 °C

Q: For CCOC(=O)c1nc(C)n(Cc2ccc([N+](=O)[O-])cc2)c1C(=O)OCC, which melting point is on record?
A: 109 °C

Q: Which melting point does the source give for Cn1cc(-c2c(-c3ccc(F)cc3)nn3ccncc23)ccc1=O here?
A: 222 to 223 °C

Q: Which melting point does the source give for COc1ccc2cc3c(=O)n(C)cc(C(=O)NCCN(C)C)c3nc2c1Cl here?
A: 209 to 212 °C

Q: Which melting point does the source give for CCC(C)(C)NC1=NS(=O)(=O)c2sc(Cl)cc2N1 here?
A: 359 to 360 °C

Reference: a melting point compilation (Tetko et al.; mined from patent text by program, amines drawn as free bases though some values may be those of a salt)
